Inconclusive results are not listed. Calls of active or inactive are those of the source.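 Rule for the calls: active = Compounds that reduce signal, with fitted half-maximal dose at or under twice the top valid tested dose; inconclusive = Poor fit, or flat curve losing 30 to 70% of signal; inactive = Potency past limit, flat within 30%, or opposite direction.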
Experiment: viability loss in HEK293T cells – cell-based, ATP luminescence, cherry-pick samples, cytotoxicity control, dose response (AID 687005)
Conditions: HEK293T viability, ATP luminescence (CellTiter-Glo), 48 h

COc1ccc(NC(=O)N(C)C[C@H]2OCCCC[C@@H](C)Oc3ccc(NC(=O)c4ccccc4)cc3C(=O)N([C@@H](C)CO)C[C@H]2C)cc1
activity change, negative = cytotoxicity (at 26 µM (top of the series)): 7.8% (inactive)

CNC(=O)C[C@@H]1CC[C@H]2[C@@H](COC[C@H](O)CN2C(=O)Nc2ccc3c(c2)OCO3)O1
activity change, negative = cytotoxicity (at 26 µM (top of the series)): -5.64% (inactive)

C[C@H]1CN([C@@H](C)CO)C(=O)c2cc(-c3ccc(F)cc3)cnc2O[C@@H]1CN(C)CC1CCCCC1
activity change, negative = cytotoxicity (at 26 µM (top of the series)): -16.9% (inactive)

CN1c2ccc(Br)cc2[C@@H]2[C@@H](CCN2C(=O)Cc2cccnc2)[C@@H]1CO
activity change, negative = cytotoxicity (at 23.5 µM (top of the series)): -13.9% (inactive)

CO[C@H]1CN(C)C(=O)c2cc(NS(=O)(=O)CC(F)(F)F)ccc2OC[C@@H](C)N(Cc2cccnc2)C[C@@H]1C
activity change, negative = cytotoxicity (at 26 µM (top of the series)): -36.3% (inactive)

CC(C)NC(=O)N(C)C[C@H]1OCCCC[C@@H](C)Oc2ccc(NC(=O)c3ccccc3)cc2C(=O)N([C@@H](C)CO)C[C@@H]1C
activity change, negative = cytotoxicity (at 26 µM (top of the series)): -10.9% (inactive)

C[C@H](NC(=O)C[C@@H]1C=C[C@H](NC(=O)CN2CCOCC2)[C@H](CO)O1)c1ccccc1
activity change, negative = cytotoxicity (at 26 µM (top of the series)): -20.9% (inactive)

CC(C)C#Cc1ccc([C@@H]2[C@H](CO)N3CCCCN(C(=O)c4ccc5c(c4)OCO5)C[C@@H]23)cc1
activity change, negative = cytotoxicity (at 26 µM (top of the series)): 28.2% (inactive)

CCC(=O)N(C)C[C@H]1Oc2cc(C#CC(C)(C)O)ccc2S(=O)(=O)N([C@H](C)CO)C[C@@H]1C
activity change, negative = cytotoxicity (at 26 µM (top of the series)): 41.1% (inactive)

Cc1cc(C(=O)Nc2cccc3c2O[C@@H](CN(C)S(=O)(=O)c2ccccc2)[C@@H](C)CN([C@@H](C)CO)C3=O)n(C)n1
activity change, negative = cytotoxicity (at 23.5 µM (top of the series)): -20.3% (inactive)

Cc1c(C(=O)NC(=S)Nc2ccc(N3CCOCC3)cc2)cccc1[N+](=O)[O-]
activity change, negative = cytotoxicity (at 26 µM (top of the series)): -33.3% (inactive)

CO[C@@H]1CN(C)C(=O)c2cc(NC(=O)Nc3cccc(F)c3)ccc2OC[C@H](C)N(C)C[C@@H]1C
activity change, negative = cytotoxicity (at 26 µM (top of the series)): -0.56% (inactive)

CC(C)NC(=O)N1CC[C@@H]2[C@@H](CO)N(C)c3ccc(-c4cccc(F)c4)cc3[C@@H]21
activity change, negative = cytotoxicity (at 23.5 µM (top of the series)): 40.1% (inactive)

Cc1cccc(C)c1NC(=O)C(C)N1CCCC1 (configuration not stated)
activity change, negative = cytotoxicity (at 26 µM (top of the series)): -44.2% (inactive)

Cc1noc(C)c1S(=O)(=O)Nc1ccc2c(c1)CC(=O)N([C@@H](C)CO)C[C@H](C)[C@@H](CN(C)S(=O)(=O)c1cn(C)cn1)O2
activity change, negative = cytotoxicity (at 26 µM (top of the series)): 50.4% (inactive)

CC(=O)N(C)C[C@H]1Oc2cc(C#Cc3ccc(F)cc3)ccc2S(=O)(=O)N([C@H](C)CO)C[C@@H]1C
activity change, negative = cytotoxicity (at 26 µM (top of the series)): 53% (inactive)

O=C(C[C@H]1CC[C@H]2[C@@H](COC[C@@H](O)CN2S(=O)(=O)c2ccc(Oc3ccccc3)cc2)O1)NC1CCC1
activity change, negative = cytotoxicity (at 26 µM (top of the series)): 16.3% (inactive)

CC(C)NC(=O)N(C)C[C@H]1Oc2c(NC(=O)C3CCCCC3)cccc2C(=O)N([C@H](C)CO)C[C@H]1C
activity change, negative = cytotoxicity (at 26 µM (top of the series)): 5.22% (inactive)

C[C@H](CO)N1C[C@H](C)[C@@H](CN(C)C(=O)Nc2cccc3ccccc23)Oc2c(cccc2N(C)C)C1=O
activity change, negative = cytotoxicity (at 26 µM (top of the series)): 49.5% (inactive)

C[C@H]1CN([C@@H](C)CO)S(=O)(=O)c2ccc(C#Cc3cccc(F)c3)cc2O[C@@H]1CN(C)C
activity change, negative = cytotoxicity (at 26 µM (top of the series)): -49.7% (inactive)

COc1cccc(S(=O)(=O)N(C)C[C@H]2OCc3cnnn3CCCC(=O)N([C@H](C)CO)C[C@H]2C)c1
activity change, negative = cytotoxicity (at 26 µM (top of the series)): 38.2% (inactive)

CC=Cc1ccc2n(c1=O)C[C@@H]1[C@@H](CO)[C@H](C(=O)N3CCc4ccccc4C3)N(C(=O)C3CC3)[C@H]21 (mixture of isomers)
activity change, negative = cytotoxicity (at 26 µM (top of the series)): -3.28% (inactive)

Cc1cccc(NC(=S)NN(Cc2ccccc2)c2ccccc2)c1C
activity change, negative = cytotoxicity (at 26 µM (top of the series)): 25.3% (inactive)

Cc1cc(C(=O)Nc2ccc3c(c2)C(=O)N(C)[C@@H]2CC[C@@H](CC(=O)N[C@@H](C)c4ccccc4)O[C@@H]2CO3)no1
activity change, negative = cytotoxicity (at 26 µM (top of the series)): -33.4% (inactive)

C[C@@H]1CCCCO[C@@H](CN(C)Cc2ccncc2)[C@@H](C)CN([C@@H](C)CO)C(=O)c2cc(NC(=O)c3ccncc3)ccc2O1
activity change, negative = cytotoxicity (at 23.5 µM (top of the series)): 46.4% (inactive)

COc1ccc(NC(=O)N(C)C[C@@H]2OCCCC[C@@H](C)Oc3ccc(NC(=O)Nc4ccc5c(c4)OCO5)cc3C(=O)N([C@@H](C)CO)C[C@H]2C)cc1
activity change, negative = cytotoxicity (at 23.5 µM (top of the series)): -17% (inactive)

O=C(C1CCOCC1)N1CC[C@@H]2[C@H]1c1cc(Br)ccc1N[C@@H]2CO
activity change, negative = cytotoxicity (at 26 µM (top of the series)): 8.11% (inactive)

O=C(C[C@H]1CC[C@H]2[C@@H](COC[C@H](O)CN2C(=O)Nc2ccc3c(c2)OCO3)O1)N1CCN(c2ccccc2)CC1
activity change, negative = cytotoxicity (at 26 µM (top of the series)): 5.63% (inactive)

CC(C)NC(=O)Nc1ccc2c(c1)C(=O)N([C@@H](C)CO)C[C@@H](C)[C@H](CN(C)C(=O)Cc1ccccc1)OCCCC[C@@H](C)O2
activity change, negative = cytotoxicity (at 26 µM (top of the series)): 37.8% (inactive)

C[C@@H]1CCCCO[C@@H](CN(C)Cc2ccc(C(F)(F)F)cc2)[C@@H](C)CN([C@@H](C)CO)C(=O)c2cc(NS(=O)(=O)c3cn(C)cn3)ccc2O1
activity change, negative = cytotoxicity (at 23.5 µM (top of the series)): -31.2% (inactive)

CO[C@@H]1CN(C)C(=O)c2cc(NS(=O)(=O)c3ccc(C)cc3)ccc2OC[C@@H](C)N(C)C[C@@H]1C
activity change, negative = cytotoxicity (at 26 µM (top of the series)): 5.91% (inactive)

C[C@H](CO)N1C[C@H](C)[C@H](CN(C)C(=O)Nc2cccc3ccccc23)Oc2ccc(NC(=O)Cc3ccccc3)cc2CC1=O
activity change, negative = cytotoxicity (at 23.5 µM (top of the series)): 10.3% (inactive)

COc1cccc(S(=O)(=O)N(C)C[C@@H]2Oc3ncc(-c4cccc(F)c4)cc3C(=O)N([C@H](C)CO)C[C@@H]2C)c1
activity change, negative = cytotoxicity (at 26 µM (top of the series)): -18.4% (inactive)

CC(C)NC(=O)N[C@H]1CC[C@@H](CCNC(=O)C2CC2)O[C@@H]1CO
activity change, negative = cytotoxicity (at 26 µM (top of the series)): -21.3% (inactive)

C[C@@H]1CCCCO[C@H](CN(C)Cc2ccncc2)[C@@H](C)CN([C@@H](C)CO)C(=O)c2cc(NC(=O)Nc3ccccc3)ccc2O1
activity change, negative = cytotoxicity (at 26 µM (top of the series)): -7.38% (inactive)

C[C@H](CO)N1C[C@H](C)[C@H](CN(C)C(=O)Nc2cccc(F)c2)Oc2ncc(C#CCN(C)C)cc2C1=O
activity change, negative = cytotoxicity (at 26 µM (top of the series)): -20.2% (inactive)

C[C@H]1CN([C@@H](C)CO)C(=O)Cc2cc(NC(=O)C3CC3)ccc2O[C@H]1CN(C)Cc1ccc(-c2ccccc2)cc1
activity change, negative = cytotoxicity (at 23.5 µM (top of the series)): -24.1% (inactive)

CO[C@H]1CN(C)C(=O)c2cc(NC(=O)c3ccc4c(c3)OCO4)ccc2OC[C@@H](C)N(CC2CC2)C[C@H]1C
activity change, negative = cytotoxicity (at 26 µM (top of the series)): -5.62% (inactive)

CC(C)NC(=O)Nc1ccc2c(c1)CC(=O)N([C@H](C)CO)C[C@H](C)[C@@H](CN(C)C(=O)Nc1ccc3c(c1)OCO3)O2
activity change, negative = cytotoxicity (at 26 µM (top of the series)): 31.9% (inactive)

Cc1cccc(NC(=O)CN(C)C(=O)C2CCCC2)c1C
activity change, negative = cytotoxicity (at 26 µM (top of the series)): -33.5% (inactive)

Cc1ccc(S(=O)(=O)N(C)C[C@H]2Oc3c(cccc3N(C)C)C(=O)N([C@@H](C)CO)C[C@H]2C)cc1
activity change, negative = cytotoxicity (at 26 µM (top of the series)): -16.9% (inactive)

Cc1ccccc1S(=O)(=O)N[C@@H]1CC[C@H](CCNS(=O)(=O)c2cccc(F)c2)O[C@H]1CO
activity change, negative = cytotoxicity (at 26 µM (top of the series)): -17.7% (inactive)

COc1ccccc1CNC(=O)COc1ccc2c(c1)CCC2
activity change, negative = cytotoxicity (at 26 µM (top of the series)): 28.6% (inactive)

Cc1ccc(N(C(=O)C2CCC(=O)N2)C2(C(=O)NC3CCCC3)CCCCC2)cc1 (configuration not stated)
activity change, negative = cytotoxicity (at 26 µM (top of the series)): -43.5% (inactive)

O=C(CCN1CCCCC1)NCC[C@@H]1CC[C@H](NC(=O)c2ccc(F)cc2)[C@@H](CO)O1
activity change, negative = cytotoxicity (at 26 µM (top of the series)): 9.77% (inactive)

C[C@@H]1CN([C@@H](C)CO)C(=O)c2cc(NS(=O)(=O)c3cn(C)cn3)ccc2O[C@@H](C)CCCCO[C@H]1CN(C)C
activity change, negative = cytotoxicity (at 26 µM (top of the series)): -1.98% (inactive)

CO[C@@H]1CN(C)C(=O)c2ccc(NC(C)=O)cc2OC[C@@H](C)N(C(=O)Cc2cccnc2)C[C@H]1C
activity change, negative = cytotoxicity (at 23.5 µM (top of the series)): -26.2% (inactive)

CC(C)NC(=O)Nc1ccc2c(c1)CC(=O)N([C@@H](C)CO)C[C@@H](C)[C@@H](CN(C)Cc1ccc(Oc3ccccc3)cc1)O2
activity change, negative = cytotoxicity (at 26 µM (top of the series)): -58.4% (inactive)

CC(C)NC(=O)Nc1ccc2c(c1)C(=O)N([C@@H](C)CO)C[C@@H](C)[C@@H](CN(C)C(=O)NC1CCCCC1)OCCCC[C@H](C)O2
activity change, negative = cytotoxicity (at 23.5 µM (top of the series)): -7.35% (inactive)

C[C@@H]1CN([C@H](C)CO)C(=O)c2cc(NS(=O)(=O)c3ccccc3)ccc2O[C@H]1CN(C)C(=O)NC1CCCCC1
activity change, negative = cytotoxicity (at 23.5 µM (top of the series)): -10.5% (inactive)

C[C@H]1CN([C@@H](C)CO)C(=O)c2cccc(NS(=O)(=O)c3cn(C)cn3)c2O[C@@H]1CN(C)CC1CCCCC1
activity change, negative = cytotoxicity (at 26 µM (top of the series)): -5.42% (inactive)

C[C@H](CO)N1C[C@H](C)[C@@H](CN(C)S(=O)(=O)c2ccccc2)Oc2c(NC(=O)Nc3cccc4ccccc34)cccc2C1=O
activity change, negative = cytotoxicity (at 26 µM (top of the series)): 35.2% (inactive)

CC(C)CC#Cc1cnc2c(c1)C(=O)N([C@@H](C)CO)C[C@@H](C)[C@@H](CN(C)C(=O)c1cccc(F)c1)O2
activity change, negative = cytotoxicity (at 26 µM (top of the series)): -19.3% (inactive)

CCC(=O)N[C@H]1C=C[C@H](CC(=O)NCC2CCCCC2)O[C@@H]1CO
activity change, negative = cytotoxicity (at 26 µM (top of the series)): 35.4% (inactive)

CO[C@H]1CN(C)C(=O)c2cc(NC(=O)c3ccccc3F)ccc2OC[C@H](C)N(C(C)=O)C[C@H]1C
activity change, negative = cytotoxicity (at 26 µM (top of the series)): -16.7% (inactive)

C[C@@H]1CN([C@@H](C)CO)C(=O)c2cc(NC(=O)C3CC3)ccc2O[C@H]1CN(C)Cc1ccc2c(c1)OCO2
activity change, negative = cytotoxicity (at 26 µM (top of the series)): 9.22% (inactive)

C/C=C/c1ccc([C@@H]2[C@@H](CO)N3CCCCN(C(=O)Nc4ccc(OC)cc4)C[C@H]23)cc1
activity change, negative = cytotoxicity (at 26 µM (top of the series)): 48.4% (inactive)

COc1ccc(C(=O)NC(=S)Nc2ccccc2N2CCOCC2)cc1[N+](=O)[O-]
activity change, negative = cytotoxicity (at 26 µM (top of the series)): -32.3% (inactive)

Cc1noc(C)c1S(=O)(=O)Nc1ccc2c(c1)CC(=O)N([C@H](C)CO)C[C@H](C)[C@H](CN(C)S(=O)(=O)c1cccs1)O2
activity change, negative = cytotoxicity (at 23.5 µM (top of the series)): -4.72% (inactive)

CNC[C@H]1Oc2ccc(NC(=O)Cc3cn(C)c4ccccc34)cc2CC(=O)N([C@@H](C)CO)C[C@H]1C
activity change, negative = cytotoxicity (at 26 µM (top of the series)): 27% (inactive)

O=C(NC[C@@H]1[C@H](c2ccccc2)[C@@H](CO)N1C(=O)Cc1cccnc1)C1CCC1
activity change, negative = cytotoxicity (at 26 µM (top of the series)): 8.39% (inactive)

C[C@@H]1CCCCO[C@H](CN(C)C(=O)CCCN(C)C)[C@@H](C)CN([C@H](C)CO)C(=O)c2cc(NC(=O)Cc3ccccc3)ccc2O1
activity change, negative = cytotoxicity (at 26 µM (top of the series)): 5.89% (inactive)

— PubChem BioAssay AID687005 (Broad Institute, 2013)
